Source: ChEMBL document CHEMBL5338739, “Discovery of Dual Lysine Methyltransferase G9a and EZH2 Inhibitors with In Vivo Efficacy against Malignant Rhabdoid Tumor” (J Med Chem, 2023)
Activity calls are given as the source filed them. The rule behind the calls is not given here.

Tests used:
RD [1] = experiment: Cytotoxicity against human RD cells assessed as reduction in cell viability incubated for 72 hrs by MTT assay; format: functional
SW982 [2] = experiment: Cytotoxicity against human SW982 cells assessed as reduction in cell viability incubated for 72 hrs by MTT assay; format: functional
RD [3] = experiment: Antitumor activity against human RD cells xenografted in BALB/c nude mouse assessed as tumor growth inhibition at 20 mg/kg, ip administered for 5 consecutive days followed by 2 rest days for 3 weeks; details: 504 h, read-out: TGI
Mus musculus [4] = experiment: Downregulation of H3K9me2 expression in tumor tissue of BALB/c nude mouse xenografted with human RD cells at 20 mg/kg, ip administered for 5 consecutive days followed by 2 rest days for 3 weeks by Western blotting analysis; format: functional, organism-based
Mus musculus [5] = experiment: Downregulation of H3K27me3 expression in tumor tissue of BALB/c nude mouse xenografted with human RD cells at 20 mg/kg, ip administered for 5 consecutive days followed by 2 rest days for 3 weeks by Western blotting analysis; format: functional, organism-based
[6] = target: T1, Histone-lysine N-methyltransferase EHMT2 (Homo sapiens, UniProt Q96KQ7); experiment: Inhibition of human recombinant EHMT2 G9a using SAM as substrate incubated for 1 hr by microplate luminescence based HMT assay
T1 sequence (Q96KQ7 whole entry): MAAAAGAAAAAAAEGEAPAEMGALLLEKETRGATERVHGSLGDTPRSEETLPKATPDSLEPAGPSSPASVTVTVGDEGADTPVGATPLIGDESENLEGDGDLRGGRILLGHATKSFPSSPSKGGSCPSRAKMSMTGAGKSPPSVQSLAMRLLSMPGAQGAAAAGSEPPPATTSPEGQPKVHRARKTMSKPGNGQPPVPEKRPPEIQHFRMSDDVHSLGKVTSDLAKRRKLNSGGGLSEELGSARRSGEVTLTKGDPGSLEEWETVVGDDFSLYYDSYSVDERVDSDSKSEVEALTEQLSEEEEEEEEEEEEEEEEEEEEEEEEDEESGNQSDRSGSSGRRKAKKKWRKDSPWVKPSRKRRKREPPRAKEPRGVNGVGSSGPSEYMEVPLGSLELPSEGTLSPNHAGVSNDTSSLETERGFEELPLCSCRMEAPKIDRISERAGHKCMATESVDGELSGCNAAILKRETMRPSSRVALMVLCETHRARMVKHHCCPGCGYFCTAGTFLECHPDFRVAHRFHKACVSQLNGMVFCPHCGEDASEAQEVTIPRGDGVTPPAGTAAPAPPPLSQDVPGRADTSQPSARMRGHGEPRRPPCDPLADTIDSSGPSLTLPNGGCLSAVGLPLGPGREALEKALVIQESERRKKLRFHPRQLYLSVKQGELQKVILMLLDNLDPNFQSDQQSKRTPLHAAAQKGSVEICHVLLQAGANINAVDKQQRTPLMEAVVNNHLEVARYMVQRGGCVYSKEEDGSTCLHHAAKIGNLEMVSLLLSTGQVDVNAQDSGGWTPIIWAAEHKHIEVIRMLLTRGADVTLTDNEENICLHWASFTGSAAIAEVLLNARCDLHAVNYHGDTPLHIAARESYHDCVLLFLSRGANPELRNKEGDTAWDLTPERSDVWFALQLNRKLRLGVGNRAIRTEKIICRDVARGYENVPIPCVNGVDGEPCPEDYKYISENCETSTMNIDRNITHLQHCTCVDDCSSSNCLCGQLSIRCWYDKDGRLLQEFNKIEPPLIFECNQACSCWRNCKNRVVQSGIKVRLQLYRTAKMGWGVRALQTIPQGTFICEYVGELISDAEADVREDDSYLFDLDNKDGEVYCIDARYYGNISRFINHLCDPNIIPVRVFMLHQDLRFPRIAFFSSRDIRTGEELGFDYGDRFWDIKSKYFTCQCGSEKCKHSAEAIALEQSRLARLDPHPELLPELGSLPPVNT

[7] = target: Histone-lysine N-methyltransferase EZH2 (Homo sapiens, UniProt Q15910); experiment: Inhibition of human EZH2 using SAM as substrate incubated for 1 hr by microplate luminescence based HMT assay
SW982 [8] = experiment: Antiproliferative activity against human SW982 cells assessed as reduction in clone formation rate at 5 uM for 1 to 2 weeks with fresh medium replacement for every 2 to 3 days by crystal violet staining based microscopic analysis; format: functional, cell-based; details: time 1-2 weeks
RD [9] = experiment: Antiproliferative activity against human RD cells assessed as reduction in clone formation rate at 5 uM for 1 to 2 weeks with fresh medium replacement for every 2 to 3 days by crystal violet staining based microscopic analysis; format: functional, cell-based; details: time 1-2 weeks
RD [10] = experiment: Antiproliferative activity against human RD cells assessed as reduction in clone formation rate at 5 uM for 1 to 2 weeks with fresh medium replacement for every 2 to 3 days in presence of tazemetostat by crystal violet staining based microscopic analysis; format: functional, cell-based; details: time 1-2 weeks
SW982 [11] = experiment: Antiproliferative activity against human SW982 cells assessed as reduction in clone formation rate at 5 uM for 1 to 2 weeks with fresh medium replacement for every 2 to 3 days in presence of tazemetostat by crystal violet staining based microscopic analysis; format: functional, cell-based; details: time 1-2 weeks

Chain of Histone-lysine N-methyltransferase EZH2 (Q15910 whole entry): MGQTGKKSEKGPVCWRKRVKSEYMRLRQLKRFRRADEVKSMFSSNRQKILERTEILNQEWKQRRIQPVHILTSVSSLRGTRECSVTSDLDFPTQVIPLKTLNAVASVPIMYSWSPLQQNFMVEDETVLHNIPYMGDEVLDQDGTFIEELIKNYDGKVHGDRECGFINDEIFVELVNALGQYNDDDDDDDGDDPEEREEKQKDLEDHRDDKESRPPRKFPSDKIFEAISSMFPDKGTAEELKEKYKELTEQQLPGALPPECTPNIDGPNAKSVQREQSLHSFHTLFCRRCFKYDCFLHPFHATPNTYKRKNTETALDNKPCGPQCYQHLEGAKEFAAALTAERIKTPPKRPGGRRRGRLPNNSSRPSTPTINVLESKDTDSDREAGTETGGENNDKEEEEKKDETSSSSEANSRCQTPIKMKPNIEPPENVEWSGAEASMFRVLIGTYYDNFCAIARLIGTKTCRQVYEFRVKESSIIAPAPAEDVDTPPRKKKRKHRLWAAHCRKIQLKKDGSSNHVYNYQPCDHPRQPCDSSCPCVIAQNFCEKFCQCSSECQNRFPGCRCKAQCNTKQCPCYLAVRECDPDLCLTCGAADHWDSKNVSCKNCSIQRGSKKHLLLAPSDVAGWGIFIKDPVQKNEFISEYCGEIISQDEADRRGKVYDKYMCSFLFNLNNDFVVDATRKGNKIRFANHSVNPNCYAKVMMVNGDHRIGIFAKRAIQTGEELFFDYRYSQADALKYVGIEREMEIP

| Structure (SMILES) | CC50 (RD [1]) [µM] | CC50 (SW982 [2]) [µM] | other results |
| --- | --- | --- | --- |
| COc1cc2c(NCc3c(C)cc(C)[nH]c3=O)nc(N3CCCC3)nc2cc1OCCCN1CCCC1 | 75.7 | 90.2 | – |
| COc1cc2c(NCc3c(C)cc(C)[nH]c3=O)nc(N3CCC(OC)CC3)nc2cc1OCCCN1CCCC1 | 40.1 | 61.6 | – |
| CCN1CCN(c2nc(NCc3c(C)cc(C)[nH]c3=O)c3cc(OC)c(OCCCN4CCCC4)cc3n2)CC1 | 22.7 | 53.6 | – |
| COc1cc2c(NCc3c(C)cc(C)[nH]c3=O)nc(N3CCN(C)CC3)nc2cc1OCCCN1CCCC1 | 60.1 | 67.2 | – |
| CCN(CC)c1nc(NCc2c(C)cc(C)[nH]c2=O)c2cc(OC)c(OCCCN3CCCC3)cc2n1 | 82.5 | 87.7 | – |
| COc1cc2c(NCc3c(C)cc(C)[nH]c3=O)nc(N(C)CCN(C)C)nc2cc1OCCCN1CCCC1 | 74.3 | 78.3 | – |
| CCN(c1cc(-c2ccc(CN3CCOCC3)cc2)cc(C(=O)NCc2c(C)cc(C)[nH]c2=O)c1C)C1CCOCC1 [TAZEMETOSTAT] | 245 | 116 | inhibition in vivo at 20 mg/kg (RD [3]): 69.2%; Activity (Mus musculus [4]): Active; Activity (Mus musculus [5]): Active |
| COc1cc2c(NCc3c(C)cc(C)[nH]c3=O)nc(N(C)C)nc2cc1OCCCN1CCCC1 | 74.4 | 85 | – |
| COc1cc2nc(N(C)CCCN(C)C)nc(NCc3c(C)cc(C)[nH]c3=O)c2cc1OC | 76 | 101 | – |
| COc1cc2c(NCc3c(C)cc(C)[nH]c3=O)nc(N3CCCN(C)CC3)nc2cc1OCCCN1CCCC1 | 56.5 | 48.9 | – |
| COc1cc2c(NCc3c(C)cc(C)[nH]c3=O)nc(N3CCOCC3)nc2cc1OCCCN1CCCC1 | 73.8 | 99.8 | – |
| COc1cc2nc(N3CCN(C)CC3)nc(NCc3c(C)cc(C)[nH]c3=O)c2cc1OC | 79.9 | 106 | – |
| COc1cc2nc(N3CCOCC3)nc(NCc3c(C)cc(C)[nH]c3=O)c2cc1OC | 77.2 | 89.2 | – |
| COc1cc2nc(N3CCCN(C)CC3)nc(NCc3c(C)cc(C)[nH]c3=O)c2cc1OC | 68.5 | 99.8 | IC50 [6]: 0.015 µM; IC50 [7]: 0.0533 µM |
| COc1cc2nc(N(C)CCN(C)C)nc(NCc3c(C)cc(C)[nH]c3=O)c2cc1OC | 84.9 | 85.7 | – |
| COc1cc2c(NCc3c(C)cc(C)[nH]c3=O)nc(N3CCCCC3)nc2cc1OCCCN1CCCC1 | 41.3 | 27 | – |
| COc1cc2c(NC3CCN(C(C)C)CC3)nc(C3CCCCC3)nc2cc1OCCCN1CCCC1 | 34.2 | 29.5 | Activity (SW982 [8]): Active; Activity (RD [9]): Active; Activity (RD [10]): Active; Activity (SW982 [11]): Active |
| COc1cc2c(NCc3c(C)cc(C)[nH]c3=O)nc(N3CCCCCC3)nc2cc1OCCCN1CCCC1 | 23.5 | 35.7 | – |
